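Cells were grown in 96-well plates and exposed to each compound for 48 hours at five concentrations; endpoints were interpolated linearly between bracketing concentrations, or set to the highest concentration if not reached. GI50 is the concentration that inhibits growth by half.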 Active and inactive are the calls of the source. No stated cut-off is given here; in the data, active = GI50 up to about 1.1 µM and inactive = higher.
Legend:
Assay in all cases: inhibition of tumour cell growth, NCI panel, 48 h
[1] = tested on: 786-0
[2] = tested on: A498
[3] = tested on: A549
[4] = tested on: ACHN
[5] = tested on: EKVX
[6] = tested on: HOP-92
[7] = tested on: Hs-578T
[8] = tested on: KM12
[9] = tested on: MDA-MB-435
[10] = tested on: MOLT-4
[11] = tested on: NCI-H23
[12] = tested on: NCI-H460
[13] = tested on: OVCAR-3
[14] = tested on: SF-295
[15] = tested on: SK-MEL-2
[16] = tested on: SK-OV-3
[17] = tested on: SW-620
[18] = tested on: U-251
[19] = tested on: UACC-257
[20] = tested on: UO-31

Measured: GI50

O=P(O)(O)CCP(=O)(O)O
inactive: [1] > 100 µM | [2] > 100 µM | [3] > 100 µM | [4] > 100 µM | [5] > 100 µM | [6] > 100 µM | [7] > 100 µM | [8] > 100 µM | [9] > 100 µM | [10] > 100 µM | [11] > 100 µM | [12] > 100 µM | [13] > 100 µM | [14] > 100 µM | [15] > 100 µM | [16] > 100 µM | [17] > 100 µM | [18] > 100 µM | [19] 5.62 µM | [20] > 100 µM

CCOC(=O)CCC(C(=O)OCC)n1nc2ccc(Nc3c(C)[n+]([O-])c4cc(F)c(OCC)cc4[n+]3[O-])cc2n1 (stereo not given)
inactive: [1] 25.3 µM | [2] 52.4 µM | [3] 75.2 µM | [4] 40.2 µM | [5] 28.5 µM | [6] 21.4 µM | [7] 26.2 µM | [8] > 100 µM | [9] > 100 µM | [10] > 100 µM | [11] 32.9 µM | [12] 29.3 µM | [13] > 100 µM | [14] 36.1 µM | [15] 50.2 µM | [16] 31.9 µM | [17] > 100 µM | [18] 23.6 µM | [19] > 100 µM | [20] 52.4 µM

O=C1N[C@@H]2c3c(Br)sc(Br)c3C(=O)[C@@H]2O1
inactive: [1] 7.11 µM | [2] 16.7 µM | [3] 16.4 µM | [4] 1.85 µM | [5] 2.13 µM | [6] 5.14 µM | [7] 19.7 µM | [8] 10.7 µM | [9] 2.47 µM | [10] 1.89 µM | [11] 2.83 µM | [12] 8.67 µM | [13] 1.8 µM | [14] 17.2 µM | [15] 16.8 µM | [16] 18.7 µM | [17] 1.96 µM | [18] 2.39 µM | [19] 3.32 µM | [20] 10.1 µM

O=C(Nc1ccn(C2CC(I)C(COC(c3ccccc3)(c3ccccc3)c3ccccc3)O2)c(=O)n1)c1ccccc1 (stereo not given)
inactive: [1] 8.34 µM | [2] 7.03 µM | [3] 7.83 µM | [4] 12.7 µM | [5] 13.2 µM | [6] 5.14 µM | [7] 3.03 µM | [8] 7.46 µM | [9] 7.36 µM | [10] 4.13 µM | [11] 6.89 µM | [12] 7.11 µM | [13] 4.25 µM | [14] 13.6 µM | [15] > 10 µM | [16] 15.5 µM | [17] 14 µM | [18] 10.1 µM | [19] 10.8 µM | [20] 4.53 µM

CN(C)CC1CN/C(=N\C(=O)Nc2ccccc2)O1 (stereo not given)
inactive: [1] > 100 µM | [2] 42.3 µM | [3] > 100 µM | [4] > 100 µM | [5] > 100 µM | [6] > 100 µM | [7] > 100 µM | [8] > 100 µM | [9] > 100 µM | [10] > 100 µM | [11] > 100 µM | [12] > 100 µM | [13] > 10 µM | [14] > 100 µM | [15] > 100 µM | [16] > 100 µM | [17] > 100 µM | [18] > 100 µM | [19] > 100 µM | [20] > 100 µM

— ChEMBL document CHEMBL1201862, “PubChem BioAssay data set” (2004)
